In US20100331269A1, “TRITERPENES DERIVATIVES AND USES THEREOF AS ANTITUMOR AGENTS OR ANTI-INFLAMMATORY AGENTS” (priority 2006, published 2010):

Experiments:
[1] = tested on: PA-1 human ovary teratocarcinoma cells; assay: Cytotoxicity, resazurin metabolism assay, PA-1; format: cell-based; details: mean ± SD
Excerpt: (§1) Human lung carcinoma (A-549), human colon adenocarcinoma (DLD-1), human normal fibroblasts (WS1), mice melanoma (B16-F1), Human glioma (U-251), Human hepatocellular carcinoma (HEP G2), Human prostate adenocarcinoma (PC-3), Human ovary teratocarcinoma metastatic (PA-1), Human breast adenocarcinona metastatic (MDA-MB-231), Human breast adenocarcinoma (MCF-7) and Human malignant melanoma (SK-MEL-2) cell lines were obtained from the American Type Culture Collection (ATCC). All cell lines were cultured in minimum essential medium containing Earle's salts and L-glutamine (Mediatech Cellgro, Va.), to which was added 10% fetal bovine serum (Hyclone), vitamins (1×), penicillin (100 I.U./mL) and streptomycin (100 μg/mL), essential amino acids (1×) and sodium pyruvate (1×) (Mediatech Cellgro, Va.). Cells were kept at 37° C. in a humidified environment containing 5% CO2.
(§2) Exponentially growing cells were plated in 96-well microplates (Costar, Corning Inc.) at a density of 5×10^3 cells per well in 100 μL of culture medium and were allowed to adhere for 16 hours before treatment. Increasing concentrations of each compound in DMSO (Sigma-Aldrich) were then added (100 μL per well) and the cells were incubated for 48 h. […] Cytotoxicity was assessed using resazurin (O'Brien, J. et al., Eur. J. Biochem. 2000, 267, 5421-5426) on an automated 96-well Fluoroskan Ascent F1™ plate reader (Labsystems) using excitation and emission wavelengths of 530 nm and 590 nm, respectively. Fluorescence was proportional to the cellular metabolic activity in each well. Survival percentage was defined as the fluorescence in experimental wells compared to that in control wells after subtraction of blank values. Each experiment was carried out three times in triplicata. IC50 results were expressed as mean±standard deviation.
(§3) Compounds presented in Table 5 below were also tested in the following tumour cell lines: U-251 (Human glioma), HEP G2 (Human hepatocellular carcinoma), PC-3 (Human prostate adenocarcinoma), PA-1 (Human ovary teratocarcinoma metastatic), MDA-MB-231 (Human breast adenocarcinona metastatic), MCF-7 (Human breast adenocarcinoma) and SK-MEL-2 (Human malignant melanoma).

[2] = tested on: MDA-MB-231 human breast adenocarcinoma cells; assay: Cytotoxicity, resazurin metabolism assay, MDA-MB-231; format: cell-based; details: mean ± SD
Excerpt: as §1, §2, §3

B16-F1 cells = assay: Cytotoxicity, Hoechst DNA assay, B16-F1; format: cell-based, mouse; details: ± SD
Excerpt: as §1
(§4) The cytotoxicity of triterpenes (1-8) and corresponding glycosides (9-30) (Table 2 below) as well as of germanicane-type triterpenes and glycosides (31-44) (Table 3 below) was assessed towards human cancer (A-549, DLD-1), mouse melanoma (B16-F1) and human normal skin fibroblast (WS1) cell lines using the resazurin reduction test (RTT test) as previously described (O'Brien, J. et al., Eur. J. Biochem. 2000, 267, 5421-5426). Measurements of fluorescence were carried out after 48 continuous hours of contact between compounds and cells. Results presented in Tables 2 and 3 below express the concentration inhibiting 50% of the cell growth (IC50). Known for its activity against A-549, betulinic acid (3) was used as a positive control in this experimentation. […] The cytotoxic activity of some of these compounds was also assessed using the Hoechst DNA assay (Table 4 below).

[3] = tested on: DLD-1 human colorectal adenocarcinoma cells; assay: Cytotoxicity, resazurin metabolism assay, DLD-1; format: cell-based; details: 48 h, mean ± SD
Excerpt: as §1, §2, §4

U-251 human glioma cells = assay: Cytotoxicity, resazurin metabolism assay, U-251; format: cell-based; details: mean ± SD
Excerpt: as §1, §2, §3

[4] = tested on: Hep G2 human hepatocellular carcinoma cells; assay: Cytotoxicity, resazurin metabolism assay, Hep G2; format: cell-based; details: mean ± SD
Excerpt: as §1, §2, §3

[5] = tested on: WS-1 human normal skin fibroblasts; assay: Cytotoxicity, resazurin metabolism assay, WS-1; format: cell-based; details: 48 h, mean ± SD
Excerpt: as §1, §2, §4

[6] = tested on: MCF-7 human breast adenocarcinoma cells; assay: Cytotoxicity, resazurin metabolism assay, MCF-7; format: cell-based; details: mean ± SD
Excerpt: as §1, §2, §3

[7] = tested on: A-549 human lung carcinoma cells; assay: Cytotoxicity, resazurin metabolism assay, A-549; format: cell-based; details: 48 h, mean ± SD
Excerpt: as §1, §2, §4

[8] = tested on: B16-F1 mouse melanoma cells; assay: Cytotoxicity, resazurin metabolism assay, B16-F1; format: cell-based; details: 48 h, mean ± SD
Excerpt: as §1, §2, §4

DLD-1 cells = assay: Cytotoxicity, Hoechst DNA assay, DLD-1; format: cell-based, human; details: ± SD
Excerpt: as §1, §4

WS-1 cells = assay: Cytotoxicity, Hoechst DNA assay, WS-1; format: cell-based, human; details: ± SD
Excerpt: as §1, §4

A-549 cells = assay: Cytotoxicity, Hoechst DNA assay, A-549; format: cell-based, human; details: ± SD
Excerpt: as §1, §4

[9] = tested on: PC-3 human prostate adenocarcinoma cells; assay: Cytotoxicity, resazurin metabolism assay, PC-3; format: cell-based; details: mean ± SD
Excerpt: as §1, §2, §3

[10] = tested on: SK-Mel-2 human melanoma cells; assay: Cytotoxicity, resazurin metabolism assay, SK-Mel-2; format: cell-based; details: mean ± SD
Excerpt: as §1, §2, §3

[11] = tested on: NO production in lipopolysaccharide (LPS) stimulated cells; details: read-out: IC50 (NO production); cells stimulated with 100 ug/ml LPS, 24 h, Griess reaction
Experimental: Exponentially growing cells were plated in 24-well microplates (BD Falcon) at a density of 2×10^5 cells per well in 400 μl of culture medium and were allowed to adhere overnight. Cells were then treated or not with positive control N(G)-nitro-L-arginine methyl ester (L-NAME), or increasing concentrations of methanol extracts dissolved in the appropriate solvents, and incubated at 37° C., 5% CO2 for 24 h. The final concentration of solvent in the culture medium was maintained at 0.5% (volume/volume) to avoid solvent toxicity. Cells were then stimulated with 100 ug/ml lipopolysaccharide (LPS). After 24 h, cell-free supernatants were collected and stored at −80° C. until NO determination using the Griess reaction (Green et al. 1990) with minor modifications. Briefly, 100 μl aliquots of cell supernatants were incubated with 50 μl of 1% sulfanilamide and 50 μl of 0.1% N-1-naphtylethylenediamine dihydrochloride in 2.5% H3PO4 at room temperature for 20 min. Absorbance at 540 nm was then measured using an automated 96-well Varioskan Ascent™ plate reader (Thermo Electron) and the presence of nitrite was quantified by comparison with an NaNO2 standard curve.

[12] = tested on: L1210 murine lymphocytic leukemia; details: 200 mg/kg; cited from earlier work
[13] = tested on: Walker 256 murine carcinosarcoma; details: cited from earlier work
Lewis lung carcinoma = assay: In vivo antitumoral activity against Lewis lung cancer-bearing mice; design: species or system C57BL/6 mouse; details: day 13
Experimental: Cell lines and mice preparation: The Lewis lung carcinoma cell lines (#CRL-1642, lot # 4372266, ATCC) and the C57BL/6 mouse strain (Charles River Inc., St-Constant, Qc) were used. Cells were grown to 90% confluence in complete DMEM medium containing Earle's salts and L-glutamine (Mediatech Cellgro, Va.), 10% foetal bovine serum (Hyclone), vitamins (1×), penicillin (100 I.U./mL) and streptomycin (100 μg/mL), essential amino acids (1×) and sodium pyruvate (1×) (Mediatech Cellgro, Va.). Cells were then harvested with up and down only. Cells were counted using a hemacytometer and resuspended in DMEM medium without SVF. 100 μL of a solution containing 1×10^7 cells/mL was inoculated subcutaneously in the right flank of each 6 weeks old mouse on day zero.
The experimental mice were weighed daily.
Data analysis: In vivo antitumor activity was evaluated according to the parameters as follows (Miot-Noirault, E. et al. Invest. New Drugs 2004, 22, 369-378):
(a) Calculated tumour weight (CTW): The CTW of each tumour was estimated from two-dimensional measurements performed once a day with a slide calliper, according to the formula: CTW (mg)=(L×W^2)/2 with L=length in mm and W=width in mm. Differences in CTW between treated and control groups (DMSO) were analyzed for significance using the U Wilcoxon-Mann-Whitney test and Student t-test. Values of p<0.05 were considered statistically significant.
(b) Treated/Control value (T/C) and Tumour Growth Inhibition (TGI):The T/C was calculated as the ratio of the mean CTW of TW of drug-treated mice versus controls: T/C=(CTW of the drug-treated group on Day X/CTW of the control group on Day X)×100. TGI is 100−(T/C) value.

Structure (SMILES) | IC50 [1] [µM] | IC50 [2] [µM] | IC50 (B16-F1 cells) [µM] | IC50 [3] [µM] | IC50 (U-251 human glioma cells) [µM] | IC50 [4] [µM] | IC50 [5] [µM] | IC50 [6] [µM] | IC50 [7] [µM] | IC50 [8] [µM] | IC50 (DLD-1 cells) [µM] | IC50 (WS-1 cells) [µM] | IC50 (A-549 cells) [µM] | IC50 [9] [µM] | IC50 [10] [µM] | other results
C=C(C)[C@@H]1CC[C@]2(C(=O)O)CC[C@]3(C)[C@H](CC[C@@H]4[C@@]5(C)CC[C@H](O[C@H]6OC[C@@H](O)[C@@H](O)[C@@H]6O)C(C)(C)[C@@H]5CC[C@]43C)[C@@H]12 [Compound 23, 3-O-α-D-Arabinopyranoside of Betulinic Acid] | 20 ± 2 | 57 ± 6 | 10.2 ± 0.6 | 17 ± 3 | 70 ± 10 | 66 ± 9 | 47 ± 5 | 45 ± 9 | 10 ± 2 | 11 ± 1 | 10 ± 1 | 32 ± 2 | 5.7 ± 0.8 | 110 ± 10 | 62 ± 7 | 
C=C(C)C1CCC2(COC3OCC(O)C(O)C3O)CCC3(C)C(CCC4C5(C)CCC(O)C(C)(C)C5CCC43C)C12 [Compound 17, 28-O-α-D-Arabinopyranoside of Betulin] |  |  | > 194 | > 175 |  |  | > 175 |  | > 175 | > 175 | > 194 | > 194 | > 194 |  |  | IC50 [11]: 25 ± 1 µM
C=C(C)[C@@H]1CC[C@]2(C)CC[C@]3(C)[C@H](CC[C@@H]4[C@@]5(C)CC[C@H](O[C@@H]6O[C@H](CO)[C@@H](O)[C@H](O)[C@H]6O)C(C)(C)[C@@H]5CC[C@]43C)[C@@H]12 [Compound 9, 3-O-6-D-Glucopyranoside of lupeol] | 13 ± 1 | 20.9 ± 0.6 | 18 ± 2 | 14 ± 1 | 17.9 ± 0.7 | 17.8 ± 0.2 | 13.3 ± 0.5 | 16.4 ± 0.5 | 14 ± 1 | 15 ± 0.7 | 19 ± 1 | 20 ± 2 | 22 ± 2 | 30 ± 2 | 15.5 ± 0.6 | 
C=C(C)[C@@H]1CC[C@]2(C(=O)OC)CC[C@]3(C)[C@H](CC[C@@H]4[C@@]5(C)CC[C@H](O[C@H]6OC[C@@H](O)[C@@H](O)[C@@H]6O)C(C)(C)[C@@H]5CC[C@]43C)[C@@H]12 [Compound 20, 3-O-α-D-Arabinopyranoside of Methyl Betulinate] | 16 ± 4 | 16.3 ± 0.8 | 12.6 ± 0.5 | 18 ± 1 | 15 ± 1 | 15 ± 2 | 12.5 ± 0.4 | 21 ± 3 | 13.5 ± 0.6 | 13.3 ± 0.4 | 16 ± 0.6 | 13.2 ± 0.7 | 11.7 ± 0.8 | 17 ± 1 | 16 ± 1 | 
C=C(C)[C@@H]1CC[C@]2(C(=O)OC)CC[C@]3(C)[C@H](CC[C@@H]4[C@@]5(C)CC[C@H](O[C@@H]6O[C@H](CO)[C@@H](O)[C@H](O)[C@H]6O)C(C)(C)[C@@H]5CC[C@]43C)[C@@H]12 [Compound 18, 3-O-β-D-Glucopyranoside of Methyl Betulinate] | 60 ± 20 | 101.7 ± 0.1 | 7.2 ± 0.8 | 3.93 ± 0.09 | 84 ± 2 | 79 ± 5 | 9.3 ± 0.2 | 110 ± 6 | 8.4 ± 0.3 | 7.1 ± 0.3 | 4 ± 0.2 | 12 ± 2 | 9.3 ± 0.6 | 130 ± 30 | 103 ± 4 | 
C=C(C)[C@@H]1CC[C@]2(C(=O)O)CC[C@]3(C)[C@H](CC[C@@H]4[C@@]5(C)CC[C@H](O)C(C)(C)[C@@H]5CC[C@]43C)[C@@H]12 [Compound 3, Betulinic acid, reference compound] |  |  | 18 ± 2 | 15 ± 0.3 |  |  | 12 ± 1 |  | 10.3 ± 0.4 | 16.1 ± 0.5 | 12 ± 1 | 14 ± 2 | 8 ± 1 |  |  | Activity in the L1210 murine lymphocytic leukemia model [12]: inactive; Activity in the Walker 256 model (subsequent report) ([13]; 400 mg/kg): inactive; Activity against the Walker 256 murine carcinosarcoma tumor system ([13]; dose levels of 300 and 500 mg/kg body weight): dose-dependent activity; CTW (calculated tumour weight) (Lewis lung carcinoma; 50 mg/kg IP every 3-4 days): 294 ± 69 mg; T/C (Treated/Control) (Lewis lung carcinoma; 50 mg/kg IP): 90%; TGI (Tumour Growth Inhibition) (Lewis lung carcinoma; 50 mg/kg IP): 10%; CTW (calculated tumour weight) (Lewis lung carcinoma; 100 mg/kg IP every 3-4 days): 264 ± 58 mg; T/C (Treated/Control) (Lewis lung carcinoma; 100 mg/kg IP): 81%; TGI (Tumour Growth Inhibition) (Lewis lung carcinoma; 100 mg/kg IP): 19%; CTW (calculated tumour weight) (Lewis lung carcinoma; 200 mg/kg IP every 3-4 days): 265 ± 58 mg; T/C (Treated/Control) (Lewis lung carcinoma; 200 mg/kg IP): 81%; TGI (Tumour Growth Inhibition) (Lewis lung carcinoma; 200 mg/kg IP): 19%
